Where a SMILES comes first, the peptide text is derived from it.
Assays:
[1] = biological target: DNA-3-methyladenine glycosylase (Homo sapiens) (UniProt P29372); settings: Compound Concentration 10.0 uM, Hit No;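 further: enzyme assay where MPG cuts a quenched duplex DNA oligonucleotide probe, paired with APE1 for strand incision and turnover, read as fluorescence at 594 nm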
[2] = biological target: T1, Adenine DNA glycosylase (Homo sapiens) (UniProt Q9UIF7); settings: Compound Concentration 10.0 uM, Hit No;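 further: human MUTYH activity read as 594 nm fluorescence from cleavage and release of a quenched DNA duplex, coupled with APE1 for strand incision, lower signal meaning inhibition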
T1 sequence (whole entry): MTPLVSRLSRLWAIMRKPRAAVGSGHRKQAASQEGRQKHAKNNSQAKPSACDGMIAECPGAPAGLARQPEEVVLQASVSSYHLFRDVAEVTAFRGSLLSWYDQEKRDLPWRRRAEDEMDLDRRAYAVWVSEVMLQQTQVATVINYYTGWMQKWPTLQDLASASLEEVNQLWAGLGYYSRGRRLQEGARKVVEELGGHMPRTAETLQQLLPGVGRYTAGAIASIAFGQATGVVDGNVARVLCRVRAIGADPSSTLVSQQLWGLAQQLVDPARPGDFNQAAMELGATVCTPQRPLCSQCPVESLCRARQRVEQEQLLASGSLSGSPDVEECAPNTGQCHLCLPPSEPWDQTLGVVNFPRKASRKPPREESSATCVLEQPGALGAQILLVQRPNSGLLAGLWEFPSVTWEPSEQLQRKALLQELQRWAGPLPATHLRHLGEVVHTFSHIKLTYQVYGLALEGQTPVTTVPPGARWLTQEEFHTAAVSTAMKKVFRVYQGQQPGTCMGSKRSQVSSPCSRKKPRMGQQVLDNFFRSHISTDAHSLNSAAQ

[3] = biological target: Uracil-DNA glycosylase (Homo sapiens) (UniProt P13051); settings: Compound Concentration 10.0 uM, Hit No;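 further: UNG excision on a quenched double-stranded DNA oligo probe, with APE1 added for strand incision and turnover, read as fluorescence at 594 nm as strands separate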
Uracil-DNA glycosylase (Homo sapiens), sequence (P13051 whole entry, the tested form may be a part): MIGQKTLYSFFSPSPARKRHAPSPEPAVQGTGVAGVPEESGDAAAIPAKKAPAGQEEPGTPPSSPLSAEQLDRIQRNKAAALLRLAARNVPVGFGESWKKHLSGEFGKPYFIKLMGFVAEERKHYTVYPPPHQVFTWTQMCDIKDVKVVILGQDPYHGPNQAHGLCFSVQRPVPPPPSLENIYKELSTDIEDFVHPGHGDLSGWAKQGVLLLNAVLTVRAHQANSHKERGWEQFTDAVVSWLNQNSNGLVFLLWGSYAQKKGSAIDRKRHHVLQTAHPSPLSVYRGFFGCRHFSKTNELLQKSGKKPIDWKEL

[4] = biological target: Methyl-CpG-binding domain protein 4 (Homo sapiens) (UniProt O95243); settings: Compound Concentration 10.0 uM;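 further: MBD4 activity read as fluorescence at 594 nm from cleavage and release of a quenched duplex DNA oligonucleotide, with APE1 coupled to incise the strand and raise turnover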
Methyl-CpG-binding domain protein 4 (Homo sapiens), sequence (O95243 whole entry, the tested form may be a part): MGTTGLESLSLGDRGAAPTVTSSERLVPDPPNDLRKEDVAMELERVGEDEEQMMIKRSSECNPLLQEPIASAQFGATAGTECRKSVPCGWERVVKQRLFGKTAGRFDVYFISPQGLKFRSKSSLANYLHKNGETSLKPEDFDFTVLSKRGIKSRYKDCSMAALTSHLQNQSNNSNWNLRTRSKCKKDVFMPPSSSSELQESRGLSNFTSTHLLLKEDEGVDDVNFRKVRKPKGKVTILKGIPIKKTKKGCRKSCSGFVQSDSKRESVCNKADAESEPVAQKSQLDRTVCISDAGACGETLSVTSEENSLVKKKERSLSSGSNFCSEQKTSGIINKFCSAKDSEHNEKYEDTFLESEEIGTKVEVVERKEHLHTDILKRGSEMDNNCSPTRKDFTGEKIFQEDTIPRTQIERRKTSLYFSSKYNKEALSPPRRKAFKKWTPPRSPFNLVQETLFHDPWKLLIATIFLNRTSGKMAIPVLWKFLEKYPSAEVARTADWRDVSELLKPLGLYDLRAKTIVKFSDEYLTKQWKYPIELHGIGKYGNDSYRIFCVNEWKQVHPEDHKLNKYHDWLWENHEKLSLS

[5] = biological target: G/T mismatch-specific thymine DNA glycosylase (Homo sapiens) (UniProt Q13569); settings: Compound Concentration 10.0 uM;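 further: human TDG cleavage of quenched duplex DNA oligonucleotides coupled to APE1, strand release read as fluorescence at 594 nm, inhibition of TDG activity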
G/T mismatch-specific thymine DNA glycosylase (Homo sapiens), sequence (Q13569 whole entry): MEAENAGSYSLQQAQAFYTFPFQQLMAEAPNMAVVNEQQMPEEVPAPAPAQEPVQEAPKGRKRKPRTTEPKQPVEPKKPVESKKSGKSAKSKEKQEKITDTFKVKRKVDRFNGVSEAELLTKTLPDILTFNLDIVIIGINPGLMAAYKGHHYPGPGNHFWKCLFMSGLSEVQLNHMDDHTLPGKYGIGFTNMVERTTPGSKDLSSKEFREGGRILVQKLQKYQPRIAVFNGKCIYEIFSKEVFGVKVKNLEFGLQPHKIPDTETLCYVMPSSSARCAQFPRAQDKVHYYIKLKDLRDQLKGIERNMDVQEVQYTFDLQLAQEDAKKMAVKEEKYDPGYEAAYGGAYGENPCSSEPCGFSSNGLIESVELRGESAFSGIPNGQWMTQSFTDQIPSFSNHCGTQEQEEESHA

[6] = biological target: T2, Endonuclease 8-like 2 (Homo sapiens) (UniProt Q969S2); settings: Compound Concentration 10.0 uM;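 further: fluorescence at 594 nm reports NEIL2 cutting and release of a quenched double-stranded DNA oligo substrate, reduced signal read as inhibition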
T2 sequence (whole entry): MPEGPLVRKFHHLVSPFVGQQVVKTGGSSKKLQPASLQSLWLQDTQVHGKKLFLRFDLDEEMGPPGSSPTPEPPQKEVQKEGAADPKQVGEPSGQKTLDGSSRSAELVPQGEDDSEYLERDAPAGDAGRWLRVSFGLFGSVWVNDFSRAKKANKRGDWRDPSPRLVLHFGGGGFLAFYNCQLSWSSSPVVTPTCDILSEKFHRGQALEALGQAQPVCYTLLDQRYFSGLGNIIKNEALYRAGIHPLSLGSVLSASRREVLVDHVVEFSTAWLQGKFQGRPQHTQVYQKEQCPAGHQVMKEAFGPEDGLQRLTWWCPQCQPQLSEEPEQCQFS

[7] = biological target: T3, Endonuclease III-like protein 1 (Homo sapiens) (UniProt P78549); settings: Compound Concentration 10.0 uM;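 further: enzyme assay tracking NTHL1 cutting and release of a quenched double-stranded DNA oligo substrate, read as fluorescence at 594 nm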
T3 sequence (whole entry): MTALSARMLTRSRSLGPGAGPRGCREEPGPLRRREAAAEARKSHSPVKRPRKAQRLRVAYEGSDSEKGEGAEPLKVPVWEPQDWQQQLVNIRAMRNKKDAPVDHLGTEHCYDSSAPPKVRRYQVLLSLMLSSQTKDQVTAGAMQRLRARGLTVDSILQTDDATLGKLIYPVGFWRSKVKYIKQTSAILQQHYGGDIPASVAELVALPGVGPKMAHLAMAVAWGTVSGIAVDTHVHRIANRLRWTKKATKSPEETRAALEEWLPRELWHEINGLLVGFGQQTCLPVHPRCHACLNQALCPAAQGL

[8] = biological target: Endonuclease 8-like 1 (Homo sapiens) (UniProt Q96FI4); settings: Compound Concentration 10.0 uM;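 further: fluorescence at 594 nm from quenched duplex DNA oligonucleotides released by NEIL1 cleavage and strand separation, reported as reduction of this enzyme activity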
Endonuclease 8-like 1 (Homo sapiens), sequence (Q96FI4 whole entry): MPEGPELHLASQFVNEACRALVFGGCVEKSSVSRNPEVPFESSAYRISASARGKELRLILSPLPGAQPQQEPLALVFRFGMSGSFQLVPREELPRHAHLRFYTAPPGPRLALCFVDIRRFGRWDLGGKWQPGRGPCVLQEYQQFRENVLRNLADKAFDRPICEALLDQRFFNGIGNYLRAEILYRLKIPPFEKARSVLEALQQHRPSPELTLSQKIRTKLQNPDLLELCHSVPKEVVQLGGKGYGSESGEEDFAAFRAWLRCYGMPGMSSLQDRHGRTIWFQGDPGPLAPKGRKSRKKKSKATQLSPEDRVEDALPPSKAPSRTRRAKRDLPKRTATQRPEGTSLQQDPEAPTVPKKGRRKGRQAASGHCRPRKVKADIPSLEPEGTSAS

[9] = biological target: T4, Single-strand selective monofunctional uracil DNA glycosylase (Homo sapiens) (UniProt Q53HV7); settings: Compound Concentration 10.0 uM;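 further: enzymatic SMUG1 assay coupled with APE1, reading fluorescence at 594 nm released when a quenched double-stranded DNA oligonucleotide substrate is cleaved and separated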
T4 sequence (whole entry): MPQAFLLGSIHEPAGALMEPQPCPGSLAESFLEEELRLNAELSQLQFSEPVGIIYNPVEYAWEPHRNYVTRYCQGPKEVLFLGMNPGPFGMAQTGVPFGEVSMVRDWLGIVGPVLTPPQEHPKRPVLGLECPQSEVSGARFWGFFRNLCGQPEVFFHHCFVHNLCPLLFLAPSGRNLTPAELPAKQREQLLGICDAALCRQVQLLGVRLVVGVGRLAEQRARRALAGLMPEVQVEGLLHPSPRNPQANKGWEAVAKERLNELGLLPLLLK

[10] = biological target: N-glycosylase/DNA lyase (Homo sapiens) (UniProt O15527); settings: Compound Concentration 10.0 uM;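 further: OGG1 cleavage of a quenched duplex DNA oligonucleotide, coupled to APE1 for strand incision, read as fluorescence at 594 nm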
N-glycosylase/DNA lyase (Homo sapiens), sequence (O15527 whole entry): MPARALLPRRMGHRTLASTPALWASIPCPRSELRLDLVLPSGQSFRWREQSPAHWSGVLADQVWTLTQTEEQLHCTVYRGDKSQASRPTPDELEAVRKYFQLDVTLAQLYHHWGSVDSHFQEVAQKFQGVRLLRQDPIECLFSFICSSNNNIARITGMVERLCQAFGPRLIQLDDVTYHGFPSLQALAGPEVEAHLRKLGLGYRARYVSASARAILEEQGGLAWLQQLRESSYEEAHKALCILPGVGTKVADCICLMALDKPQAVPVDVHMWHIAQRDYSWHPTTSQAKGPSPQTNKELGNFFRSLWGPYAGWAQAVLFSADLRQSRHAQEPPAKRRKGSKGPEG

DNA-3-methyladenine glycosylase (Homo sapiens), sequence (P29372 whole entry): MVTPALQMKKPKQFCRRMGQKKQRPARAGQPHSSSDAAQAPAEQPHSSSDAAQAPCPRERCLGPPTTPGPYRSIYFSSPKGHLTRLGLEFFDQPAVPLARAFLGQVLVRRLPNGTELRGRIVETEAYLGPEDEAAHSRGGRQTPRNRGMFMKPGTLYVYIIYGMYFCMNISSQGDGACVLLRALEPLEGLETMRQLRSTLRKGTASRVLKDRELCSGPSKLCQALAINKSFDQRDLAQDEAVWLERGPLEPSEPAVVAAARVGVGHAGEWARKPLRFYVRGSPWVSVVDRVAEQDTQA

Compound	inhibition [1]	inhibition [2]	inhibition [3]	inhibition ([4]; Hit No)	inhibition ([5]; Hit No)	inhibition ([6]; Hit No)	inhibition ([7]; Hit No)	inhibition ([8]; Hit No)	inhibition ([9]; Hit No)	inhibition ([10]; Hit No)	inhibition ([4]; Hit Yes)	inhibition ([5]; Hit Yes)	inhibition ([7]; Hit Yes)	inhibition ([9]; Hit Yes)	inhibition ([10]; Hit Yes)	inhibition ([6]; Hit Yes)	inhibition ([8]; Hit Yes)
CC[C@H]1[C@@H](O)[C@@H]2[C@H](CC[C@]3(C)[C@@H]([C@H](C)CCC(=O)O)CC[C@@H]23)[C@@]2(C)CC[C@@H](O)C[C@@H]12	17.5%	24.4%	5.49%	77.2%	67.3%	1.55%	1.34%	1.53%	27.8%	26.2%	–	–	–	–	–	–	–
Cn1ncnc1COc1nn2c(-c3cc(F)ccc3F)nnc2cc1C(C)(C)C	-8.96%	-2.13%	-5.8%	6.48%	6.81%	-8.5%	-7.69%	1.64%	-5.72%	-6.92%	–	–	–	–	–	–	–
O=C(NS(=O)(=O)N1CCC1)c1cc(C2CC2)c(OCC23CC4CC(CC(C4)C2)C3)cc1F	60.8%	93%	7.9%	–	–	17.5%	–	7.57%	–	–	87.3%	79.6%	56.7%	98.5%	93.6%	–	–
Cc1ccc2nc(NCCN)c3ncc(C)n3c2c1	75.9%	83.5%	14.9%	53%	67.6%	–	–	–	44.2%	47.4%	–	–	43.3%	–	–	47.1%	28.9%
CCCCCC(O)/C=C/[C@H]1C(=O)CC(O)C1C/C=C\CCCC(=O)O (stereo not given in full)	15.9%	12.9%	-3.89%	33.6%	32%	–	12.9%	5.49%	-9.9%	8.62%	–	–	–	–	–	41.2%	–
CCc1cc2c(cc1CC)CC(NC[C@H](O)c1ccc(O)c3[nH]c(=O)ccc13)C2	1.41%	21.3%	-8.46%	15.2%	16.1%	-2.48%	12.9%	0.834%	-5.22%	4.23%	–	–	–	–	–	–	–
Nc1nc2c(c(N3CCNCC3)n1)CCC1=C2[C@@H]2CCCC[C@@H]2O1	-2.48%	3.48%	-2.85%	0.963%	6.18%	4.51%	7.79%	-3.91%	13.7%	-5.22%	–	–	–	–	–	–	–
CC[C@H](C)[C@H](NC(=O)[C@H](Cc1ccc(O)cc1)NC(=O)[C@@H](NC(=O)[C@H](CCCNC(=N)N)NC(=O)[C@@H](N)CC(=O)O)C(C)C)C(=O)N[C@@H](Cc1cnc[nH]1)C(=O)N[C@H](C)C(=O)O (HELM PEPTIDE1{D.R.V.Y.I.H.[dA]}$$$$V2.0)	-4.39%	-8.51%	-2.81%	6.33%	1.59%	-1.88%	17.1%	9.79%	-8.77%	-9.35%	–	–	–	–	–	–	–
COc1cc(Nc2ccc([N+](=O)[O-])cc2C(=O)O)cc2ccccc12	44%	91.9%	10.9%	71%	67.3%	5.25%	11.3%	3.71%	23.2%	33.4%	–	–	–	–	–	–	–
O=C1CC[C@@]2(O)[C@H]3Cc4ccc(O)c5c4[C@@]2(CCN3CC2CC2)[C@H]1O5	4.49%	14.6%	-2.62%	4.42%	27.8%	-8.5%	-4.39%	-9.92%	-9.51%	-3.73%	–	–	–	–	–	–	–
O=C(O)Cn1c(C(=O)Nc2nc(-c3ccccc3Cl)cs2)cc2ccccc21	17.4%	40.1%	-4.79%	38.1%	39.6%	0.265%	-9.07%	-4.5%	5.06%	6.47%	–	–	–	–	–	–	–
CCc1nnc(NS(=O)(=O)c2ccc(NC(=S)NC(=O)/C=C/c3ccc(F)cc3)cc2)s1	31.8%	54.8%	3.3%	48%	49.8%	9.5%	23.2%	-4.5%	24.8%	12.1%	–	–	–	–	–	–	–
COc1ccc(-c2csc(NC(=O)[C@H]3CCCCN3S(=O)(=O)c3ccc(C)cc3)n2)cc1	12%	11.1%	-6.47%	10.3%	5.87%	3.47%	22%	4.6%	12.1%	-5.94%	–	–	–	–	–	–	–
CCCCCCCCc1ccc(CC[C@](N)(CO)COP(=O)(O)O)cc1	7.62%	6.04%	-7.46%	-2.75%	7.26%	6.75%	-3.94%	9.14%	0.742%	0.481%	–	–	–	–	–	–	–
COc1cc(Nc2ccnc3ccc(Br)cc23)cc(OC)c1OC	34.4%	35%	12.8%	11.8%	50.8%	1.58%	0.785%	10%	26.8%	14.7%	–	–	–	–	–	–	–
O=C(NCC12CC3CC(CC(C3)C1)C2)c1ccccc1Cl	21.7%	21.2%	-0.487%	30.1%	10.4%	-6.46%	1.39%	11.9%	-1.71%	-1.14%	–	–	–	–	–	–	–
CC(/C=C1\SC(=S)N(CCCC(=O)Nc2ccc(C(=O)O)c(O)c2)C1=O)=C\c1ccccc1	34.2%	46.5%	-7.24%	64%	53%	13.7%	0.0916%	11.6%	-1.92%	25.4%	–	–	–	–	–	–	–
N[C@@H](CCP(=O)(O)O)C(=O)O	-0.846%	-5.97%	-0.352%	13%	17.7%	-3.15%	12.1%	7.42%	-0.24%	-5.28%	–	–	–	–	–	–	–
CCCCc1nc2ccc(NC(=O)NC3CCCCC3)cc2n1Cc1ccc(-c2ccccc2C(=O)O)cc1	24%	38.2%	-9.57%	30.2%	33.1%	11%	8.52%	9.29%	-6.72%	-1.26%	–	–	–	–	–	–	–
Cn1c(C2(NC(=O)c3ccc4c(C5CCCC5)c(-c5ncc(Br)cn5)n(C)c4c3)CCC2)nc2ccc(/C=C/C(=O)O)cc21	107%	68.7%	13.1%	69.3%	101%	–	0.685%	12.4%	25.4%	60.3%	–	–	–	–	–	40.3%	–
